Read-outs that look alike come from different tables or passages of the source.
Experiments:
Assay in all cases: Kinase selectivity profile assay
Assay type in all cases: biochemical
CHK2 = target: T1, CHK2 (Homo sapiens, UniProt O96017); conditions: 500 nM; relative to DMSO; read-out: Residual enzymatic activity
T1 construct: purchased Reaction Biology Corporation
In short: (§1)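 Radiometric kinase assay run by a standard protocol. Unbound phosphate was removed by washing filters in phosphoric acid, and product radioactivity gave percent remaining kinase activity versus DMSO vehicle reactions. Run in duplicate.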

ULK2 = target: T2, ULK2 (Homo sapiens, UniProt Q8IYT8); conditions: 500 nM; relative to DMSO; read-out: Residual enzymatic activity
T2 construct: purchased Reaction Biology Corporation
In short: as §1

MLK2/MAP3K10 = target: T3, MLK2/MAP3K10 (Homo sapiens, UniProt Q02779); conditions: for remaining activity at 0.5 µM: 500 nM, relative to DMSO, read-out: Residual enzymatic activity
T3 construct: purchased Reaction Biology Corporation (assay service)
T3 sequence (Q02779 whole entry): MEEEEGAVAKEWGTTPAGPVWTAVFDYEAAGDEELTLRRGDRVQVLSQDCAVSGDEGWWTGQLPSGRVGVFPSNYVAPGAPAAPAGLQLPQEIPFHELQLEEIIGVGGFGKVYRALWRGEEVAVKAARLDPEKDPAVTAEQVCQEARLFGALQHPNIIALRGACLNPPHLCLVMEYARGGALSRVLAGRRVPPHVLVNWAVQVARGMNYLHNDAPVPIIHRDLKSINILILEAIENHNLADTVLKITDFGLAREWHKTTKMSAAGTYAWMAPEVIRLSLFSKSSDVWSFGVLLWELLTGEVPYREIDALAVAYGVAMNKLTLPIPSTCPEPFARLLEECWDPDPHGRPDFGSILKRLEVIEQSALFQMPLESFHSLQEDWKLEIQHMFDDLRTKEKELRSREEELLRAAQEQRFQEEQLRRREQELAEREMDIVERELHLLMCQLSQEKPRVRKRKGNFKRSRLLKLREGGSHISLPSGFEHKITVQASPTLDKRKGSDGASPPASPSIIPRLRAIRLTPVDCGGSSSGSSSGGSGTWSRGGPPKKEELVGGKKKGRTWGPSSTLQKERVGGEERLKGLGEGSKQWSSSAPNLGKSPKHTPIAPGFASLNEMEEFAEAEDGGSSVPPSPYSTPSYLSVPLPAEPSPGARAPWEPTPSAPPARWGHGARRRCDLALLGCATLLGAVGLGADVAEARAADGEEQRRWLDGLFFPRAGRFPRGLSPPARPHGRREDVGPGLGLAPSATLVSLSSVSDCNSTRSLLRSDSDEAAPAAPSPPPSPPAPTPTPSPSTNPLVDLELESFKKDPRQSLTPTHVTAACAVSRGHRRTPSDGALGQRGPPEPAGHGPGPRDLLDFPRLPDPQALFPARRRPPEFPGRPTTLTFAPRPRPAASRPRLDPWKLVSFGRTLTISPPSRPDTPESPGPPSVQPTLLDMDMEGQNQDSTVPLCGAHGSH
In short: as §1

SSTK/TSSK6 = target: T4, SSTK/TSSK6 (Homo sapiens, UniProt Q9BXA6); conditions: 500 nM; relative to DMSO; read-out: Residual enzymatic activity
T4 construct: purchased Reaction Biology Corporation
In short: as §1

DMPK2 = target: T5, DMPK2 (Homo sapiens, UniProt Q6DT37); conditions: read-out: Residual enzymatic activity
T5 construct: purchased Reaction Biology Corporation
In short: as §1

c-Kit = target: T6, c-Kit (Homo sapiens, UniProt P10721); conditions: 500 nM, relative to DMSO; for remaining activity at 0.5 µM: read-out: Residual enzymatic activity
T6 construct: purchased Reaction Biology Corporation
T6 sequence (P10721 26-976): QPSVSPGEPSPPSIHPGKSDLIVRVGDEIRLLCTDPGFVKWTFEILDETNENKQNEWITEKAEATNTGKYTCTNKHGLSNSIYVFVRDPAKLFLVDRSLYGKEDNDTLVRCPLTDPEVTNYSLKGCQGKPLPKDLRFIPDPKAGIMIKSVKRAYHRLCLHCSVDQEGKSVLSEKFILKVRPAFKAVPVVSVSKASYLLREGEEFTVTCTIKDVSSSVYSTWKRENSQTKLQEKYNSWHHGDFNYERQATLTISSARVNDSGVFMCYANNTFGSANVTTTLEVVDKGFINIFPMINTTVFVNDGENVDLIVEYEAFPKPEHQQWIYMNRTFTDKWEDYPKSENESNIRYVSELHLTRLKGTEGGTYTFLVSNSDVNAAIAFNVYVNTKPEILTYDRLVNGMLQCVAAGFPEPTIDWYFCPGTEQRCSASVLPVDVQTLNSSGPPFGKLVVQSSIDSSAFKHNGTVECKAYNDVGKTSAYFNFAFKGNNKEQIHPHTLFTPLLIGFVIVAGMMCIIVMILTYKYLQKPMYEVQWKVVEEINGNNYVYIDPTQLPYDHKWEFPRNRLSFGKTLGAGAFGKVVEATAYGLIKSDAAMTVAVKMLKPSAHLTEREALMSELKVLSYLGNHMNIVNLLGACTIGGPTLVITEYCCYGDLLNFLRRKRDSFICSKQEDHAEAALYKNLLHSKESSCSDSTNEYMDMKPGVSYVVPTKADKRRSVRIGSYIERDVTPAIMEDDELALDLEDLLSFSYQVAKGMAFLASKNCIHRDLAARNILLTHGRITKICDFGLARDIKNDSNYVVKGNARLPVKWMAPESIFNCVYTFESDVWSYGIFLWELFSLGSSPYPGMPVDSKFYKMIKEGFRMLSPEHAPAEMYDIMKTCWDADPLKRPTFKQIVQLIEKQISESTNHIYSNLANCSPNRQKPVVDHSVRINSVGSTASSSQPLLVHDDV
In short: as §1

MST1/STK4 = target: T7, MST1/STK4 (Homo sapiens, UniProt Q13043); conditions: 500 nM; relative to DMSO; read-out: Residual enzymatic activity
T7 construct: purchased Reaction Biology Corporation
In short: as §1

PKAcb = target: T8, PKAcb (Homo sapiens, UniProt P22694); conditions: 500 nM; relative to DMSO; read-out: Residual enzymatic activity
T8 construct: purchased Reaction Biology Corporation
In short: as §1

IKKb/IKBKB = target: T9, IKKb/IKBKB (Homo sapiens, UniProt O14920); conditions: 500 nM; relative to DMSO; read-out: Residual enzymatic activity
T9 construct: purchased Reaction Biology Corporation
In short: as §1

EPHB4 = target: T10, EPHB4 (Homo sapiens, UniProt P54760); conditions: 500 nM, relative to DMSO; for remaining activity at 0.5 µM: read-out: Residual enzymatic activity
T10 construct: purchased Reaction Biology Corporation
T10 sequence (P54760 16-987): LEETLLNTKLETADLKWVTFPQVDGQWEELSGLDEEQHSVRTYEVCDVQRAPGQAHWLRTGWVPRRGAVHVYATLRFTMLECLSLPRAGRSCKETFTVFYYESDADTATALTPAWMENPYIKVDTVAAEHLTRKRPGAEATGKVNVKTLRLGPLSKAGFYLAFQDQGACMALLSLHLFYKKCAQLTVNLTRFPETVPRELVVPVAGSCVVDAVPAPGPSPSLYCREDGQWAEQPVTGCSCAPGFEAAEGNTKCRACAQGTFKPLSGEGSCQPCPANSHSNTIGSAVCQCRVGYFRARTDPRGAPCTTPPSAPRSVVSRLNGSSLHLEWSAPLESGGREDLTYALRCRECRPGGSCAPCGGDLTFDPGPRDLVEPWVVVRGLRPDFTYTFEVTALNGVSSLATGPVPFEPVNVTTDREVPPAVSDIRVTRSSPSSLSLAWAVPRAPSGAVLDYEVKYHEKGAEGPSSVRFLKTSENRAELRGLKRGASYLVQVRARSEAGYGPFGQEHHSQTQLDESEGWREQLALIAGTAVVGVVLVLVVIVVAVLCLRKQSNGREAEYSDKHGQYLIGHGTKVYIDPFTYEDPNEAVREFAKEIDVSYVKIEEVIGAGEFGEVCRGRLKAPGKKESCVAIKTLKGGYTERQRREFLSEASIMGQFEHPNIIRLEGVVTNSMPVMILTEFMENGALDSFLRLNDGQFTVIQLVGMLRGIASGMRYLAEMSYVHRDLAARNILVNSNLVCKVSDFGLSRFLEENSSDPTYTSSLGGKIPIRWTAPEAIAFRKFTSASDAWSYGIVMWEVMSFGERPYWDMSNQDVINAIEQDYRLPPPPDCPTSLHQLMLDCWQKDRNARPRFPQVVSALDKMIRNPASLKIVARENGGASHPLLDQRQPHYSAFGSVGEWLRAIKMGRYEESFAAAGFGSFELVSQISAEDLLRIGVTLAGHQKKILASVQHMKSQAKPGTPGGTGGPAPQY
In short: as §1

STK38L/NDR2 = target: T11, STK38L/NDR2 (Homo sapiens, UniProt Q9Y2H1); conditions: 500 nM; relative to DMSO; read-out: Residual enzymatic activity
T11 construct: purchased Reaction Biology Corporation
In short: as §1

HCK = target: T12, HCK (Homo sapiens, UniProt P08631); conditions: for remaining activity at 0.5 µM: 500 nM, relative to DMSO, read-out: Residual enzymatic activity
T12 construct: purchased Reaction Biology Corporation (assay service)
T12 sequence (P08631 whole entry): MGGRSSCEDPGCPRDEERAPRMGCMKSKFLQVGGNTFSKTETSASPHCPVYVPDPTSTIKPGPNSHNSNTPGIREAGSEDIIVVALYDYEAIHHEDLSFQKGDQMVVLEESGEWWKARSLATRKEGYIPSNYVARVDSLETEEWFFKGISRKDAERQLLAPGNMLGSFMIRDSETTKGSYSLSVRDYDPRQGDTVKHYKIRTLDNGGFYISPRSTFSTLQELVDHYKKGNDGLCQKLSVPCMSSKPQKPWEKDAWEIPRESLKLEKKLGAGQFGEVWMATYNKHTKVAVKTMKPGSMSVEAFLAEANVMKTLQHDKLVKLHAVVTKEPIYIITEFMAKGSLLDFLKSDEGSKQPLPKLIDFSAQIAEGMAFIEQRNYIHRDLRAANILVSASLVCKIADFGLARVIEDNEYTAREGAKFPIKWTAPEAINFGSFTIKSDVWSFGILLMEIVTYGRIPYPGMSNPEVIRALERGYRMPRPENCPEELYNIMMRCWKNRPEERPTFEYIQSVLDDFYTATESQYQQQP
In short: as §1

TNK1 = target: T13, TNK1 (Homo sapiens, UniProt Q13470); conditions: 500 nM; relative to DMSO; read-out: Residual enzymatic activity
T13 construct: purchased Reaction Biology Corporation
In short: as §1

TTBK2 = target: T14, TTBK2 (Homo sapiens, UniProt Q6IQ55); conditions: 500 nM; relative to DMSO; read-out: Residual enzymatic activity
T14 construct: purchased Reaction Biology Corporation
In short: as §1

PKN3/PRK3 = target: T15, PKN3/PRK3 (Homo sapiens, UniProt Q6P5Z2); conditions: 500 nM; relative to DMSO; read-out: Residual enzymatic activity
T15 construct: purchased Reaction Biology Corporation
In short: as §1

ZAK/MLTK = target: T16, ZAK/MLTK (Homo sapiens, UniProt Q9NYL2); conditions: 500 nM; relative to DMSO; read-out: Residual enzymatic activity
T16 construct: purchased Reaction Biology Corporation
In short: as §1

MKK6 = target: T17, MKK6 (Homo sapiens, UniProt P52564); conditions: 500 nM; relative to DMSO; read-out: Residual enzymatic activity
T17 construct: purchased Reaction Biology Corporation
In short: as §1

AKT1 = target: T18, AKT1 (Homo sapiens, UniProt P31749); conditions: 500 nM; relative to DMSO; read-out: Residual enzymatic activity
T18 construct: purchased Reaction Biology Corporation
In short: as §1

MSSK1/STK23 = target: T19, MSSK1/STK23 (Homo sapiens, UniProt Q9UPE1); conditions: 500 nM; relative to DMSO; read-out: Residual enzymatic activity
T19 construct: purchased Reaction Biology Corporation
In short: as §1

ALK6/BMPR1B = target: T20, ALK6/BMPR1B (Homo sapiens, UniProt O00238); conditions: 500 nM; relative to DMSO; read-out: Residual enzymatic activity
T20 construct: purchased Reaction Biology Corporation
T20 sequence (O00238 14-502): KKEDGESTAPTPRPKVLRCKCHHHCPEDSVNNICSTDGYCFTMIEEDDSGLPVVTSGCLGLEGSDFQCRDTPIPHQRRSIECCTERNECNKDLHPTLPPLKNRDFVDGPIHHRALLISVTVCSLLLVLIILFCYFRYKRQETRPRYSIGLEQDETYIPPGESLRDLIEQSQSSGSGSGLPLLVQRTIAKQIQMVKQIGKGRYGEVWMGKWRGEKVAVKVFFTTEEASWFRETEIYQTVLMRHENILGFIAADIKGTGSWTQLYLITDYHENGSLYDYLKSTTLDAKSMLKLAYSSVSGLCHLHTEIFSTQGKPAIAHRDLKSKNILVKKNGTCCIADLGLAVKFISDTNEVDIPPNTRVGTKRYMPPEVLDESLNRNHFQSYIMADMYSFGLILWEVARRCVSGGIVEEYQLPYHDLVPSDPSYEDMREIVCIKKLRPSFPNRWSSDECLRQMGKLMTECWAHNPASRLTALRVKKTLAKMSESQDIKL
In short: as §1

YES/YES1 = target: T21, YES/YES1 (Homo sapiens, UniProt P07947); conditions: for remaining activity at 0.5 µM: 500 nM, relative to DMSO, read-out: Residual enzymatic activity
T21 construct: purchased Reaction Biology Corporation (Malvern, PA, USA)
T21 sequence (P07947 whole entry): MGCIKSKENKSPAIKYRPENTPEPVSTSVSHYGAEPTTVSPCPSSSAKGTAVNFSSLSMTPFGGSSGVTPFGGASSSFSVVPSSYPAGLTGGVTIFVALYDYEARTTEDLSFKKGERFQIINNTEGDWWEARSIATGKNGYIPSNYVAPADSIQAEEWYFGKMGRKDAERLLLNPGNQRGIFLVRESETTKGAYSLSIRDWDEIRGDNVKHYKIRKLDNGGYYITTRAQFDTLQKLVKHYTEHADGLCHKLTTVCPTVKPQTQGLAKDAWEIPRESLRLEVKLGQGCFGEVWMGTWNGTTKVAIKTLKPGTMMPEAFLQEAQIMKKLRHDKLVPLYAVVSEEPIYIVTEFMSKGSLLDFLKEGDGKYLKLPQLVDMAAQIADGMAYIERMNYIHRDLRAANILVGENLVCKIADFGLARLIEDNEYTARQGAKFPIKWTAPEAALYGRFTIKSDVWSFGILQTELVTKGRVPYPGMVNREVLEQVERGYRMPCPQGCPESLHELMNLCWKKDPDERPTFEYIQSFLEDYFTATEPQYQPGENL
In short: as §1

VRK2 = target: T22, VRK2 (Homo sapiens, UniProt Q86Y07); conditions: read-out: Residual enzymatic activity
T22 construct: purchased Reaction Biology Corporation
In short: as §1

TRKA = target: T23, TRKA (Homo sapiens, UniProt P04629); conditions: 500 nM; relative to DMSO; read-out: Residual enzymatic activity
T23 construct: purchased Reaction Biology Corporation
In short: as §1

PKAcg = target: T24, PKAcg (Homo sapiens, UniProt P22612); conditions: 500 nM; relative to DMSO; read-out: Residual enzymatic activity
T24 construct: purchased Reaction Biology Corporation
In short: as §1

CK2a2 = target: T25, CK2a2 (Homo sapiens, UniProt P19784); conditions: 500 nM; relative to DMSO; read-out: Residual enzymatic activity
T25 construct: purchased Reaction Biology Corporation
In short: as §1

DDR1 = target: T26, DDR1 (Homo sapiens, UniProt Q08345); conditions: for remaining activity at 0.5 µM: 500 nM, relative to DMSO, read-out: Residual enzymatic activity
T26 construct: purchased Reaction Biology Corporation (assay service)
T26 sequence (Q08345 19-913): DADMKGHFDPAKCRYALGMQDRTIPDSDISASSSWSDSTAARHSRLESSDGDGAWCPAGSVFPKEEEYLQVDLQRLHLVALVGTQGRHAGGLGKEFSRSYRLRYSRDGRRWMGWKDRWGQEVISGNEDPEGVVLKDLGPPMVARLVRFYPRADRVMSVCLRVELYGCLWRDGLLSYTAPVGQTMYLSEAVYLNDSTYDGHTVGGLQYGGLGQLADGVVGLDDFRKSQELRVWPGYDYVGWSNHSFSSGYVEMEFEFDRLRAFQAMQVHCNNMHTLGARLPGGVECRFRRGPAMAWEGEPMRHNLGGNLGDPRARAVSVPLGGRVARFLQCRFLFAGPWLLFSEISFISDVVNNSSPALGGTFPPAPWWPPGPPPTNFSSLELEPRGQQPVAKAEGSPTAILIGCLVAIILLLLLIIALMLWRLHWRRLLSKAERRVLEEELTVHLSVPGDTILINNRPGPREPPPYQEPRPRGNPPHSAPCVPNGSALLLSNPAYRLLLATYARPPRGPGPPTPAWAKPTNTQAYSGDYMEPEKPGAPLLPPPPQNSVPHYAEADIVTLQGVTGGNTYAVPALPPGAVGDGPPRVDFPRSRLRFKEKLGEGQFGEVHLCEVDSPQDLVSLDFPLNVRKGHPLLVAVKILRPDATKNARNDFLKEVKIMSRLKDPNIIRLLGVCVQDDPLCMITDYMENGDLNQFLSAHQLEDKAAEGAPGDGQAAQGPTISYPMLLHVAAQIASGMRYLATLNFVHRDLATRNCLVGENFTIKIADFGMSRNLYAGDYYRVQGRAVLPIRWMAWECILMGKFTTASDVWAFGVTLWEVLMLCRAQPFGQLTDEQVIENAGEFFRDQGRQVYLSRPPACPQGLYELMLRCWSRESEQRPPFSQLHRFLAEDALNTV
In short: as §1

[1] = 10-dose mode, threefold serial dilution from 10 μM

T1 sequence (O96017 whole entry): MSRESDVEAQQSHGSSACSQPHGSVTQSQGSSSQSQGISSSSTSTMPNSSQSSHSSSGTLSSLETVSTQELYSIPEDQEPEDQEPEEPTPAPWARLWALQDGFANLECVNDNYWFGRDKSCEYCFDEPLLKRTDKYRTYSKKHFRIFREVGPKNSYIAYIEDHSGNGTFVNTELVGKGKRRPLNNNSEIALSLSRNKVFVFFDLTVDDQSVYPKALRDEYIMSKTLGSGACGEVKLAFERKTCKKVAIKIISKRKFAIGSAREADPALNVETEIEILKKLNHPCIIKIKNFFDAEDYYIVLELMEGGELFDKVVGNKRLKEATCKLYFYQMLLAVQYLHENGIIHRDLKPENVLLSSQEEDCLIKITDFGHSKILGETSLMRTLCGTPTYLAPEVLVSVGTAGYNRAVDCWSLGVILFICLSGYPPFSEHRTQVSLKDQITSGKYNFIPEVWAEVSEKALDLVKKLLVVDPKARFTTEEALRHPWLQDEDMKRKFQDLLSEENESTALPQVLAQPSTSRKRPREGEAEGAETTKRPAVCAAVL

What does the source list for `COc1cc(Nc2ncc(F)c(Nc3ccc4c(n3)NC(=O)C(C)(C)O4)n2)cc(OC)c1OC` [R406, reference compound]?
remaining activity at 0.5 µM (CHK2): 50.7%; remaining activity at 0.5 µM (ULK2): 37.9%; remaining activity at 0.5 µM (MLK2/MAP3K10): 1.1%; remaining activity at 0.5 µM (SSTK/TSSK6): 98.7%; remaining activity at 0.5 µM (DMPK2): 57.5%; remaining activity at 0.5 µM (c-Kit): 37.1%; remaining activity at 0.5 µM (MST1/STK4): 86.3%; remaining activity at 0.5 µM (PKAcb): 70.1%; remaining activity at 0.5 µM (IKKb/IKBKB): 53%; remaining activity at 0.5 µM (EPHB4): 51.2%; remaining activity at 0.5 µM (STK38L/NDR2): 32.1%; remaining activity at 0.5 µM (HCK): 15.4%; remaining activity at 0.5 µM (TNK1): 9.6%; remaining activity at 0.5 µM (TTBK2): 95.4%; remaining activity at 0.5 µM (PKN3/PRK3): 40.8%; remaining activity at 0.5 µM (ZAK/MLTK): 85.4%; remaining activity at 0.5 µM (MKK6): 112%; remaining activity at 0.5 µM (AKT1): 99.4%; remaining activity at 0.5 µM (MSSK1/STK23): 107%; remaining activity at 0.5 µM (ALK6/BMPR1B): 145%; remaining activity at 0.5 µM (YES/YES1): 10.1%; remaining activity at 0.5 µM (VRK2): 131%; remaining activity at 0.5 µM (TRKA): 25.7%; remaining activity at 0.5 µM (PKAcg): 91.7%; remaining activity at 0.5 µM (CK2a2): 21.4%; remaining activity at 0.5 µM (DDR1): 1%

With `COc1cc(Nc2ncnc(Nc3cc4c(cn3)NC(=O)C(C)(C)O4)n2)cc(OC)c1OC` [MT-SYK-03] as the molecule, how does the remaining activity at 0.5 µM (CHK2) read?
Its remaining activity at 0.5 µM is 95%.

And the remaining activity at 0.5 µM (ULK2)?
The remaining activity at 0.5 µM was 111%.

And the remaining activity at 0.5 µM (MLK2/MAP3K10)?
Its remaining activity at 0.5 µM is 7.5%.

What about the IC50 (MLK2/MAP3K10; [1]) of the same molecule?
The IC50 was 4.3 nM.

And the inhibition at 0.5 µM (MLK2/MAP3K10; read-out: Inhibition at 500 nM)?
The inhibition at 0.5 µM was > 90%.

What about the remaining activity at 0.5 µM (SSTK/TSSK6) of the same molecule?
The remaining activity at 0.5 µM was 103%.

What about the remaining activity at 0.5 µM (DMPK2; 500 nM, relative to DMSO) of the same molecule?
The remaining activity at 0.5 µM was 96.4%.

What about the Residual enzymatic activity (c-Kit) of the same molecule?
Its Residual enzymatic activity is 69.2%.

What about the remaining activity at 0.5 µM (c-Kit) of the same molecule?
Its remaining activity at 0.5 µM is > 54%.

What about the remaining activity at 0.5 µM (MST1/STK4) of the same molecule?
The remaining activity at 0.5 µM was 94.2%.

What about the remaining activity at 0.5 µM (PKAcb) of the same molecule?
The remaining activity at 0.5 µM was 98.4%.

What about the remaining activity at 0.5 µM (IKKb/IKBKB) of the same molecule?
Its remaining activity at 0.5 µM is 94%.

What about the Residual enzymatic activity (EPHB4) of the same molecule?
Its Residual enzymatic activity is 64.6%.

What about the remaining activity at 0.5 µM (EPHB4) of the same molecule?
Its remaining activity at 0.5 µM is > 54%.

What about the remaining activity at 0.5 µM (STK38L/NDR2) of the same molecule?
The remaining activity at 0.5 µM was 89.6%.

And the remaining activity at 0.5 µM (HCK)?
The remaining activity at 0.5 µM was 26.3%.

What about the IC50 (HCK; [1]) of the same molecule?
Its IC50 is 53.7 nM.

And the remaining activity at 0.5 µM (TNK1)?
The remaining activity at 0.5 µM was 44.7%.

What about the remaining activity at 0.5 µM (TTBK2) of the same molecule?
Its remaining activity at 0.5 µM is 109%.

And the remaining activity at 0.5 µM (PKN3/PRK3)?
Its remaining activity at 0.5 µM is 90%.

And the remaining activity at 0.5 µM (ZAK/MLTK)?
The remaining activity at 0.5 µM was 92.9%.

What about the remaining activity at 0.5 µM (MKK6) of the same molecule?
Its remaining activity at 0.5 µM is 116%.

What about the remaining activity at 0.5 µM (AKT1) of the same molecule?
Its remaining activity at 0.5 µM is 101%.

And the remaining activity at 0.5 µM (MSSK1/STK23)?
The remaining activity at 0.5 µM was 106%.

What about the remaining activity at 0.5 µM (ALK6/BMPR1B) of the same molecule?
The remaining activity at 0.5 µM was 143%.

And the remaining activity at 0.5 µM (YES/YES1)?
Its remaining activity at 0.5 µM is 11.6%.

And the IC50 (YES/YES1; [1])?
Its IC50 is 3.5 nM.

And the inhibition at 0.5 µM (YES/YES1; read-out: Inhibition at 500 nM)?
Its inhibition at 0.5 µM is > 90%.

What about the remaining activity at 0.5 µM (VRK2; 500 nM, relative to DMSO) of the same molecule?
The remaining activity at 0.5 µM was 129%.

And the remaining activity at 0.5 µM (TRKA)?
Its remaining activity at 0.5 µM is 82.5%.

And the remaining activity at 0.5 µM (PKAcg)?
Its remaining activity at 0.5 µM is 106%.

And the remaining activity at 0.5 µM (CK2a2)?
The remaining activity at 0.5 µM was 66%.

What about the remaining activity at 0.5 µM (DDR1) of the same molecule?
Its remaining activity at 0.5 µM is 4.7%.

What about the IC50 (DDR1; [1]) of the same molecule?
Its IC50 is 1.8 nM.

What about the inhibition at 0.5 µM (DDR1; read-out: Inhibition at 500 nM) of the same molecule?
The inhibition at 0.5 µM was > 90%.

From PMC8632988, “Inhibition of SYK and cSrc kinases can protect bone and cartilage in preclinical models of osteoarthritis and rheumatoid arthritis” (Scientific Reports, 2021)
